Laboratory results as given in the kinase profiling compilation of Christmann-Franck et al. (2016).
Where “and” joins values, the source holds several entries; their conditions need not be identical. Identical values can stand only once.

Legend:
Experiment in all cases: radiometric filter-binding kinase assay, Kinase HotSpot
Details in all cases: compound 0.5 µM; ATP 10 µM
[1] = target: ACVR1 (human) (UniProt Q04771)
[2] = target: ALK (human) (UniProt Q9UM73)
[3] = target: AURKC (human) (UniProt Q9UQB9)
[4] = target: CDK6 CCND1 (human) (UniProt Q00534+P24385)
[5] = target: CHEK2 (human) (UniProt O96017)
Sequence of CHEK2 (human) (O96017 whole entry, looked up): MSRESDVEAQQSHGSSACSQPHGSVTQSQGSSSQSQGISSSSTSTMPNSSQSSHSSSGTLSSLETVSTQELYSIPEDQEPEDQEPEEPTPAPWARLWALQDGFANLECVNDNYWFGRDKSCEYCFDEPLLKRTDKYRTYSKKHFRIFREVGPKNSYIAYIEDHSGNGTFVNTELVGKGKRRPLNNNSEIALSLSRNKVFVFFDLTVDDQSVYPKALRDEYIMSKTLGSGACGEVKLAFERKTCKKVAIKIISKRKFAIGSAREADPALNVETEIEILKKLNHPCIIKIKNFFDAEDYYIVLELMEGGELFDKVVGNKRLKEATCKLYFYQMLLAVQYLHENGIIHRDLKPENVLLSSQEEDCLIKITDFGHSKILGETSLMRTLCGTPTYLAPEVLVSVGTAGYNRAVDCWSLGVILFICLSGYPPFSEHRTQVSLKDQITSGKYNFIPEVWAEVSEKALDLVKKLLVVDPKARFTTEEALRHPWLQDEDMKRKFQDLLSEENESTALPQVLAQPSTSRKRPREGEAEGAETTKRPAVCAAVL

[6] = target: CHUK (human) (UniProt O15111)
[7] = target: CLK3 (human) (UniProt P49761)
Sequence of CLK3 (human) (P49761 whole entry, looked up): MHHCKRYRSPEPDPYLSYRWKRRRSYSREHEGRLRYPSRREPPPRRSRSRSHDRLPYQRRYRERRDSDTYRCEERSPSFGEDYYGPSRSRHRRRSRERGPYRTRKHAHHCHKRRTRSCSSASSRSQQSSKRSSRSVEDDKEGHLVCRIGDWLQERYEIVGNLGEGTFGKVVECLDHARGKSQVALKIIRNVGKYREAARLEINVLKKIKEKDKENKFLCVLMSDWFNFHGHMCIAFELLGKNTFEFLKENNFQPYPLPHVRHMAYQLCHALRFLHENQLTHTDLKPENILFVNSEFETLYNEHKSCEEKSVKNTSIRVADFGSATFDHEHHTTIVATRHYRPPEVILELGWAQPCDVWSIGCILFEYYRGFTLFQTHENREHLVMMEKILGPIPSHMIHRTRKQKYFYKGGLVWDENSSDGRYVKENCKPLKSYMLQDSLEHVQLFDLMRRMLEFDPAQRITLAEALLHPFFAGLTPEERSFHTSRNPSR

[8] = target: EPHA4 (human) (UniProt P54764)
[9] = target: ERBB2 (human) (UniProt P04626)
[10] = target: FGFR4 (human) (UniProt P22455)
[11] = target: IRAK1 (human) (UniProt P51617)
Sequence of IRAK1 (human) (P51617 whole entry, looked up): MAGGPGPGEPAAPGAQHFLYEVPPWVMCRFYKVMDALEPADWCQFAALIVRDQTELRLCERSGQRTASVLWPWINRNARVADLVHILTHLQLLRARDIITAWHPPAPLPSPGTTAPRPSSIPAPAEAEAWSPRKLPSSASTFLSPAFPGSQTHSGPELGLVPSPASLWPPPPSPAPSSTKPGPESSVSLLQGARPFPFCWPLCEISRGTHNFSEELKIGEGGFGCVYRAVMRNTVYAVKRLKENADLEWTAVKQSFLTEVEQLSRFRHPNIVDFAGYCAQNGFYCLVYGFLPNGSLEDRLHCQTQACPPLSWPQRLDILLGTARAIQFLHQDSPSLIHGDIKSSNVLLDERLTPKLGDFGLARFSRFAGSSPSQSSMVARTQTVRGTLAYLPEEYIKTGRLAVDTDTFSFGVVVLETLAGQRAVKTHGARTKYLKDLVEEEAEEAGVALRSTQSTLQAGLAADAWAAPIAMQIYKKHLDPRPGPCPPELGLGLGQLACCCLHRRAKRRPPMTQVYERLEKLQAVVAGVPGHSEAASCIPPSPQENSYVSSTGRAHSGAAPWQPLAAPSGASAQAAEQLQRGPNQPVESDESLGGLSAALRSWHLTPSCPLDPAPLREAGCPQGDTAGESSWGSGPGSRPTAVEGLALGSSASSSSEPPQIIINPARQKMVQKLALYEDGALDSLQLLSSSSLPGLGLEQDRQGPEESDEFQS

[12] = target: JAK3 JH1 JH2 (human) (UniProt P52333)
[13] = target: KDR (human) (UniProt P35968)
[14] = target: KIT (human) (UniProt P10721)
[15] = target: MAPK1 (human) (UniProt P28482)
[16] = target: MAPK10 (human) (UniProt P53779)
[17] = target: MAPK12 (human) (UniProt P53778)
Sequence of MAPK12 (human) (P53778 whole entry, looked up): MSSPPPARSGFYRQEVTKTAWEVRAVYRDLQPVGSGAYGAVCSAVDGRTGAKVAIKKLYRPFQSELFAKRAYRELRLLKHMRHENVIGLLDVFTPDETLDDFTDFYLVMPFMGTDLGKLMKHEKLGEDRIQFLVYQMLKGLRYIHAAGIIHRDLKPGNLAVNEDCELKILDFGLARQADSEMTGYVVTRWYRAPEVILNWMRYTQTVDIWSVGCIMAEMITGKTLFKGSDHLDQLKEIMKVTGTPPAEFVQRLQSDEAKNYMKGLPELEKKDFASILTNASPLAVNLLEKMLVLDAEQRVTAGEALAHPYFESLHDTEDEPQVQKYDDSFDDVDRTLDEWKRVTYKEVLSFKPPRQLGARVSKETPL

[18] = target: MAPK13 (human) (UniProt O15264)
[19] = target: MARK1 (human) (UniProt Q9P0L2)
[20] = target: MELK (human) (UniProt Q14680)
[21] = target: MST1R (human) (UniProt Q04912)
[22] = target: MST4 (human) (UniProt Q9P289)
[23] = target: MYLK (human) (UniProt Q15746)
[24] = target: NEK4 (human) (UniProt P51957)
[25] = target: NEK6 (human) (UniProt Q9HC98)
[26] = target: NEK7 (human) (UniProt Q8TDX7)
[27] = target: NUAK2 (human) (UniProt Q9H093)
[28] = target: PASK (human) (UniProt Q96RG2)
[29] = target: PIM3 (human) (UniProt Q86V86)
[30] = target: PRKCA (human) (UniProt P17252)
[31] = target: PRKCH (human) (UniProt P24723)
Sequence of PRKCH (human) (P24723 whole entry, looked up): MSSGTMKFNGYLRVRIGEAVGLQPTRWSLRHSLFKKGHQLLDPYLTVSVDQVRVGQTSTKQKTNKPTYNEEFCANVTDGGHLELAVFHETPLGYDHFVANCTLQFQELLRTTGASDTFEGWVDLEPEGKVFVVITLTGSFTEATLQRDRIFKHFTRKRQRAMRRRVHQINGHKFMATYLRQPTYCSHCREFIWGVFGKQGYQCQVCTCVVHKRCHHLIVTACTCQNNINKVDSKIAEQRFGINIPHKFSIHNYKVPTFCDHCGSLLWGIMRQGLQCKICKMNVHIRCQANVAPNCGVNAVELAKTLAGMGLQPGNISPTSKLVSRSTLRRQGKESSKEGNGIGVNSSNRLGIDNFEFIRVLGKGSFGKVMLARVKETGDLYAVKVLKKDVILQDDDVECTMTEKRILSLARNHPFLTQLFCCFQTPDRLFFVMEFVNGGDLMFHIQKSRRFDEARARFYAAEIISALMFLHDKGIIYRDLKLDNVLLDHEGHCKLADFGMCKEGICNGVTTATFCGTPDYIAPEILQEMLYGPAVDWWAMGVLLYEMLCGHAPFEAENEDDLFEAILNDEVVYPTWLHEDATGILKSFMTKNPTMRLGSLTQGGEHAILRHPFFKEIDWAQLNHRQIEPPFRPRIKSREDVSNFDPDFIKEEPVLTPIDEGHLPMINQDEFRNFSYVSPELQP

[32] = target: PRKCZ (human) (UniProt Q05513)
[33] = target: PRKD2 (human) (UniProt Q9BZL6)
[34] = target: PRKG1 (human) (UniProt Q13976)
[35] = target: ROCK1 (human) (UniProt Q13464)
[36] = target: RPS6KA1 KD1 KD2 (human) (UniProt Q15418)
[37] = target: RPS6KB1 (human) (UniProt P23443)
[38] = target: RPS6KB2 (human) (UniProt Q9UBS0)
[39] = target: SGK2 (human) (UniProt Q9HBY8)
[40] = target: SRPK1 (human) (UniProt Q96SB4)
[41] = target: TEC (human) (UniProt P42680)
[42] = target: ULK1 (human) (UniProt O75385)

Sequence of ACVR1 (human) (Q04771 whole entry, looked up): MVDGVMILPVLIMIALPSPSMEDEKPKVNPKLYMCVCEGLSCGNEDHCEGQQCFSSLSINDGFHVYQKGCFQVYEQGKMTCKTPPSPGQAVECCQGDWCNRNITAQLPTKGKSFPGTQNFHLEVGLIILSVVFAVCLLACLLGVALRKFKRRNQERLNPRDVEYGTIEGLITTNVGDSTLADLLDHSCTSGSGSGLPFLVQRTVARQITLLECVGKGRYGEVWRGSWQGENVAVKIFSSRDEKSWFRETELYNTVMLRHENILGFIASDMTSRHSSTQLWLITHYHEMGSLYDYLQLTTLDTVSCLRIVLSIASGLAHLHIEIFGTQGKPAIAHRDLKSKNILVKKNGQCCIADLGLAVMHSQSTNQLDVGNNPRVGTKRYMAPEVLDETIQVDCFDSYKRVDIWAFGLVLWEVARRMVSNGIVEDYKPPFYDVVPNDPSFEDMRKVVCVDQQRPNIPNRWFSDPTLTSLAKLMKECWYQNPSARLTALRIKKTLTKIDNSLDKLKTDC
Sequence of ALK (human) (Q9UM73 whole entry, looked up): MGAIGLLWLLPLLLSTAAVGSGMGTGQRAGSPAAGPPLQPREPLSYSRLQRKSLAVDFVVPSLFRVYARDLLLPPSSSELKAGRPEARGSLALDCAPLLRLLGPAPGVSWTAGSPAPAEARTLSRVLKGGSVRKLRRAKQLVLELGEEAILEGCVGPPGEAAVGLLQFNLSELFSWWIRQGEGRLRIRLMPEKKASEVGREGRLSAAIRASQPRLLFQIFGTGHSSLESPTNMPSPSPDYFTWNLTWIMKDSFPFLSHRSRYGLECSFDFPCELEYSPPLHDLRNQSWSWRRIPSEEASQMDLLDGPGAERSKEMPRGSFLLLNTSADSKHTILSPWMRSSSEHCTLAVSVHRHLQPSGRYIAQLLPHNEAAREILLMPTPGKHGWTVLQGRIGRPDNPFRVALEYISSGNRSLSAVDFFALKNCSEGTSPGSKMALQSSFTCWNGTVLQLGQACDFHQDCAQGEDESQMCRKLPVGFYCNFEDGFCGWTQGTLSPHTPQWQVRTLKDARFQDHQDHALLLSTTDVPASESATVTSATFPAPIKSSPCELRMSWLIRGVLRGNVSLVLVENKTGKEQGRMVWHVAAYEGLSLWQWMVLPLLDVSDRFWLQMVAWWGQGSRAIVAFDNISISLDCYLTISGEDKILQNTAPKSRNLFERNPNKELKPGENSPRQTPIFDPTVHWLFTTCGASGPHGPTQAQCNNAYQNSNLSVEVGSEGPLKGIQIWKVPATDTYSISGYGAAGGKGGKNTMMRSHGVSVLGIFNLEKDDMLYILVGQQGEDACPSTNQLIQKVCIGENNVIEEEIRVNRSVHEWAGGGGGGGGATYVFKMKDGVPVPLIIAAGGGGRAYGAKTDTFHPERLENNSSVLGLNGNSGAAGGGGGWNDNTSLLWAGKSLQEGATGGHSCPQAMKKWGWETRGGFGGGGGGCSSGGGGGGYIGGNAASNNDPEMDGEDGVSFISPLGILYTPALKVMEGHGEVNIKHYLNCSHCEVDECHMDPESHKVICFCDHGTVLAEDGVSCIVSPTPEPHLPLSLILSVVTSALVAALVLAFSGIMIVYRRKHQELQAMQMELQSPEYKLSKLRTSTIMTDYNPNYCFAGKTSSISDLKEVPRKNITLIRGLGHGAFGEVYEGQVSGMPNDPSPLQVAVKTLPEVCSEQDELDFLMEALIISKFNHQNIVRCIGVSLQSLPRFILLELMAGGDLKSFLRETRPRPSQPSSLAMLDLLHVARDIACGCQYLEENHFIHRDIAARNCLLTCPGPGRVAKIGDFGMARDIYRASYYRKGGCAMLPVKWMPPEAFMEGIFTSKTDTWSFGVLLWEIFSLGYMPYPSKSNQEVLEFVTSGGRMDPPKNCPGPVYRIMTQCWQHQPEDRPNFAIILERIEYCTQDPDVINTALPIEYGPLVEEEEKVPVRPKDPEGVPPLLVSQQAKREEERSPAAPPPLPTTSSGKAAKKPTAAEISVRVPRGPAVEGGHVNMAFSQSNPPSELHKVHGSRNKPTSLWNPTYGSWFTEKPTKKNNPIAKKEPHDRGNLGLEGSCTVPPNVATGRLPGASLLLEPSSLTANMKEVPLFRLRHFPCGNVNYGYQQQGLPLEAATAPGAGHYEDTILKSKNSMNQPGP

For O=C1NC(=O)c2c1c1c3ccccc3[nH]c1n1cncc21, the residual activity [1] was 103%, the residual activity [2] was 84.6% and the residual activity [3] was 47.6%. The residual activity [4] was 65.7%, the residual activity [5] was 21.2% and the residual activity [6] was 100%. It also gave a residual activity [7] of 48.2%, a residual activity [8] of 98.6% and a residual activity [9] of 109%. The residual activity [10] was 78.6%, the residual activity [11] was 83.1% and the residual activity [12] was 140%. The residual activity [13] was 66.6%, the residual activity [14] was 38% and the residual activity [15] was 125%. For the same molecule, the residual activity [16] was 96%, the residual activity [17] was 85.9% and the residual activity [18] was 107%. For the same molecule, the residual activity [19] was 36.7%, the residual activity [20] was 32.6% and the residual activity [21] was 102%. It also gave a residual activity [22] of 69.4%, a residual activity [23] of 15.5% and a residual activity [24] of 88.4%. For the same molecule, the residual activity [25] was 88.7%, the residual activity [26] was 80.3% and the residual activity [27] was 80.1%. The residual activity [28] was 33.6%, the residual activity [29] was 4.48% and the residual activity [30] was 66.5%. For the same molecule, the residual activity [31] was 74.8%, the residual activity [32] was 84.8% and the residual activity [33] was 69.4%. The residual activity [34] was 85.9% and 93.8%, the residual activity [35] was 95.9% and the residual activity [36] was 31.1%. The residual activity [37] was 70.6%, the residual activity [38] was 74.7% and the residual activity [39] was 75.3%. It also gave a residual activity [40] of 95.4%, a residual activity [41] of 96.7% and a residual activity [42] of 97.2%.

Cn1c2ccccc2c2c3c(c4c5ccccc5n(CCC#N)c4c21)CNC3=O was tested, and the residual activity [1] was 155%, the residual activity [2] was 12.2% and the residual activity [3] was 55.7%. For the same molecule, the residual activity [4] was 39.4%, the residual activity [5] was 50.2% and the residual activity [6] was 102%. It also gave a residual activity [7] of 23.1%, a residual activity [8] of 90.4% and a residual activity [9] of 107%. The residual activity [10] was 86.5%, the residual activity [11] was 6.43% and the residual activity [12] was 2.44%. The residual activity [13] was 57%, the residual activity [14] was 96.9% and the residual activity [15] was 104%. For the same molecule, the residual activity [16] was 94.5%, the residual activity [17] was 85.8% and the residual activity [18] was 104%. The residual activity [19] was 20.8%, the residual activity [20] was 21.1% and the residual activity [21] was 111%. It also gave a residual activity [22] of 89.8%, a residual activity [23] of 24.6% and a residual activity [24] of 49.1%. The residual activity [25] was 103%, the residual activity [26] was 97% and the residual activity [27] was 40.5%. It also gave a residual activity [28] of 84.3%, a residual activity [29] of 17.3% and a residual activity [30] of 7.58%. The residual activity [31] was 35.3%, the residual activity [32] was 87% and the residual activity [33] was 18.7%. For the same molecule, the residual activity [34] was 80.2% and 84.3%, the residual activity [35] was 61.9% and the residual activity [36] was 9.7%. The residual activity [37] was 6.71%, the residual activity [38] was 21.6% and the residual activity [39] was 94%. It also gave a residual activity [40] of 98.3%, a residual activity [41] of 96.4% and a residual activity [42] of 106%.

COc1ccc(Cl)cc1NC(=O)Nc1cc(C)nc2ccccc12 was tested, and the residual activity [1] was 76.2%, the residual activity [2] was 99.2% and the residual activity [3] was 99.9%. The residual activity [4] was 89.8%, the residual activity [5] was 101% and the residual activity [6] was 100%. For the same molecule, the residual activity [7] was 97.5%, the residual activity [8] was 104% and the residual activity [9] was 99.7%. It also gave a residual activity [10] of 102%, a residual activity [11] of 91.2% and a residual activity [12] of 103%. It also gave a residual activity [13] of 92.8%, a residual activity [14] of 102% and a residual activity [15] of 90.4%. For the same molecule, the residual activity [16] was 86%, the residual activity [17] was 101% and the residual activity [18] was 108%. For the same molecule, the residual activity [19] was 102%, the residual activity [20] was 106% and the residual activity [21] was 82.4%. For the same molecule, the residual activity [22] was 77.6%, the residual activity [23] was 95.7% and the residual activity [24] was 92%. For the same molecule, the residual activity [25] was 97.8%, the residual activity [26] was 103% and the residual activity [27] was 100%. It also gave a residual activity [28] of 97.6%, a residual activity [29] of 97.6% and a residual activity [30] of 132%. For the same molecule, the residual activity [31] was 88.6%, the residual activity [32] was 99.4% and the residual activity [33] was 99.8%. The residual activity [34] was 108% and 97.5%, the residual activity [35] was 100% and the residual activity [36] was 77.8%. It also gave a residual activity [37] of 96%, a residual activity [38] of 106% and a residual activity [39] of 96.3%. It also gave a residual activity [40] of 82.5%, a residual activity [41] of 110% and a residual activity [42] of 91.2%.
